# Measured values taken from publication PMC9250534, “Synthesis and direct assay of large macrocycle diversities by combinatorial late-stage modification at picomole scale” (Nature Communications, 2022).
# Numbered stars: 1 amine (or outer) side, 2 acyl side, 3 side chain; on linkers, the order of the positions; unused ones are H or OH. Bridge positions count the residues as written; N and C are the ends. Square brackets hold non-standard residues; d marks the D form. Peptide text beside a SMILES is read from it. * marks the point of attachment. 1,2,3Thiadiazole5CO(4-Me) = Cc1nnsc1C(=O)*; Cysteamide = C(CS[*:3])N[*:1]; 4Amb = NCc1ccc(C(=O)O)cc1; Isovaleryl = CC(C)CC(=O)*; Orn = NCCC[C@H](N)C(=O)O; 2Furoyl = O=C(c1ccco1)*; Bz = O=C(c1ccccc1)*; βAla = NCCC(=O)O; Mpa = O=C(O)CCS
# Molecular target: T1, thrombin (Homo sapiens, UniProt P00734)
# T1 construct: consists of two polypeptide chains of 36 (light chain) and 259 amino acid
# Experiment: Thrombin inhibition screen of crude macrocycle reactions (residual thrombin activity, fluorogenic substrate Z-Gly-Gly-Arg-AMC)
# Type: biochemical
# Details: 10 µM macrocycle concentration; crude reactions, Library 1a-l; scaffold AA1-AA2-AA3 combined with 1-16 or '-'
# In short: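 Each crude macrocycle (10 μM) was preincubated 10 min at room temperature with thrombin (2 nM final) in Tris-Cl pH 7.4 containing NaCl, MgCl2, CaCl2, 0.1% BSA, 0.01% Triton X-100 and 0.6% DMSO. Z-Gly-Gly-Arg-AMC (50 μM final) was then added. Inhibition came from fluorescence slopes relative to DMSO-only controls.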
row,percent residual thrombin activity [%],SMILES
1,109.798,CC[C@H](C)[C@@H]1NC(=O)[C@H](CCCNC(=O)c2ccccc2)NC(=O)CCSSCCNC(=O)CCNC1=O [D2-I-B2/1] ([Mpa][Orn](Bz)I[βAla]-Cysteamide; disulfide 1-C)
2,114.645,CC[C@H](C)[C@@H]1NC(=O)[C@H](CCCNC(=O)COc2ccccc2)NC(=O)CCSSCCNC(=O)CCNC1=O [D2-I-B2/13]
3,115.288,O=C1CCNC(=O)[C@H](CO)NC(=O)[C@H](CCCNC(=O)c2cnccn2)NC(=O)CCSSCCN1 [D2-S-B2/2]
4,107.459,COc1ccc(C(=O)NCCC[C@@H]2NC(=O)CCSSCCNC(=O)CCNC(=O)[C@H](CO)NC2=O)cn1 [D2-S-B2/10]
5,110.146,O=C1CCNC(=O)[C@H](CO)NC(=O)[C@H](CCCNC(=O)Cc2c[nH]c3ccccc23)NC(=O)CCSSCCN1 [D2-S-B2/12]
6,105.361,O=C1CCNC(=O)[C@H](CO)NC(=O)[C@H](CCCNC(=O)c2ccc(Cl)s2)NC(=O)CCSSCCN1 [D2-S-B2/14]
7,111.429,O=C1CCSSCCNC(=O)c2ccc(cc2)CNC(=O)[C@H](Cc2c[nH]c3ccccc23)NC(=O)[C@H](CCCNC(=O)c2c[nH]c(=O)cn2)N1 [D2-W-B3/9]
8,112.189,O=C(Cc1c[nH]c2ccccc12)NCCC[C@@H]1NC(=O)CCSSCCNC(=O)c2ccc(cc2)CNC(=O)[C@H](Cc2c[nH]c3ccccc23)NC1=O [D2-W-B3/12]
9,109.796,O=C1CCSSCCNC(=O)c2ccc(cc2)CNC(=O)[C@H](Cc2c[nH]c3ccccc23)NC(=O)[C@H](CCCNC(=O)c2ccc(Cl)s2)N1 [D2-W-B3/14]
10,116.257,Cc1nnsc1C(=O)NCCC[C@@H]1NC(=O)CCSSCCNC(=O)c2ccc(cc2)CNC(=O)[C@H](Cc2c[nH]c3ccccc23)NC1=O [D2-W-B3/15]
11,113.72,C[C@H]1NC(=O)[C@H](CCCNC(=O)c2ccccc2)NC(=O)CCSSCCNC(=O)CCNC1=O [D2-a-B2/1] ([Mpa][Orn](Bz)[dA][βAla]-Cysteamide; disulfide 1-C)
12,109.862,C[C@H]1NC(=O)[C@H](CCCNC(=O)Cc2c[nH]c3ccccc23)NC(=O)CCSSCCNC(=O)CCNC1=O [D2-a-B2/12]
13,108.542,C[C@H]1NC(=O)[C@H](CCCNC(=O)c2ccc(Cl)s2)NC(=O)CCSSCCNC(=O)CCNC1=O [D2-a-B2/14]
14,106.277,O=C1CCNC(=O)[C@H](Cc2c[nH]cn2)NC(=O)CCSSCCNC(=O)[C@H](CCCNC(=O)c2c[nH]c(=O)cn2)N1 [H-B2-D2/9]
15,94.6113,O=C1CCNC(=O)[C@H](Cc2c[nH]cn2)NC(=O)CCSSCCNC(=O)[C@H](CCCNC(=O)c2ccc(Cl)s2)N1 [H-B2-D2/14]
16,110.75,O=C1CCNC(=O)[C@H](Cc2c[nH]cn2)NC(=O)CCSSCCNC(=O)[C@H](CCCNC(=O)c2ccco2)N1 [H-B2-D2/16]
17,105.489,CC(C)C[C@@H]1NC(=O)CCSSCCNC(=O)[C@H](CCCNC(=O)Cc2c[nH]c3ccccc23)NC(=O)[C@H]2CCCN(C2)C1=O [L-B4-D2/12]

# Second part, the molecule before the results:
row,SMILES,percent residual thrombin activity [%]
1,Cc1nnsc1C(=O)NCCC[C@@H]1NC(=O)CCSSCCNC(=O)[C@H](Cc2ccc(O)cc2)NC(=O)c2cccc(c2)CNC1=O [D2-B5-Y/15],91.9104
2,O=C1CCSSCCNC(=O)[C@H](Cc2ccc(O)cc2)NC(=O)c2cccc(c2)CNC(=O)[C@H](CCCNC(=O)c2ccco2)N1 [D2-B5-Y/16],100.852
3,NCCC[C@@H]1NC(=O)CCSSCCNC(=O)[C@H](Cc2ccc(O)cc2)NC(=O)c2cccc(c2)CNC1=O [D2-B5-Y/-],110.083
4,CC(C)[C@H]1NC(=O)c2cccc(c2)CNC(=O)[C@H](CCCNC(=O)c2c[nH]c(=O)[nH]c2=O)NC(=O)CCSSCCNC1=O [D2-B5-v/11],108.83
5,CC(C)[C@H]1NC(=O)c2cccc(c2)CNC(=O)[C@H](CCCNC(=O)c2ccc(Cl)s2)NC(=O)CCSSCCNC1=O [D2-B5-v/14],98.5757
6,CC(C)[C@H]1NC(=O)c2cccc(c2)CNC(=O)[C@H](CCCNC(=O)c2ccco2)NC(=O)CCSSCCNC1=O [D2-B5-v/16],103.718
7,"CC[C@H](C)[C@@H]1NC(=O)[C@H](CCCNC(=O)c2snnc2C)NC(=O)CCSSCCNC(=O)[C@@H]2CCCN2C1=O [D2-I-B1/15] ([Mpa][Orn](1,2,3Thiadiazole5CO(4-Me))IP-Cysteamide; disulfide 1-C)",108.604
8,CC[C@H](C)[C@@H]1NC(=O)[C@H](CCCNC(=O)c2cnccn2)NC(=O)CCSSCCNC(=O)CCNC1=O [D2-I-B2/2],113.295
9,CC[C@H](C)[C@@H]1NC(=O)[C@H](CCCNC(=O)CC(C)C)NC(=O)CCSSCCNC(=O)CCNC1=O [D2-I-B2/8] ([Mpa][Orn](Isovaleryl)I[βAla]-Cysteamide; disulfide 1-C),110.049
10,CC[C@H](C)[C@@H]1NC(=O)[C@H](CCCNC(=O)c2ccc(Cl)s2)NC(=O)CCSSCCNC(=O)CCNC1=O [D2-I-B2/14],94.0704
11,O=C1CCSSCCNC(=O)c2ccc(cc2)CNC(=O)[C@H](Cc2c[nH]c3ccccc23)NC(=O)[C@H](CCCNC(=O)c2ccccc2)N1 [D2-W-B3/1] ([Mpa][Orn](Bz)W[4Amb]-Cysteamide; disulfide 1-C),105.41
12,O=C1CCSSCCNC(=O)c2ccc(cc2)CNC(=O)[C@H](Cc2c[nH]c3ccccc23)NC(=O)[C@H](CCCNC(=O)c2c[nH]c(=O)[nH]c2=O)N1 [D2-W-B3/11],121.031
13,O=C(COc1ccccc1)NCCC[C@@H]1NC(=O)CCSSCCNC(=O)c2ccc(cc2)CNC(=O)[C@H](Cc2c[nH]c3ccccc23)NC1=O [D2-W-B3/13],117.613
14,NCCC[C@@H]1NC(=O)CCSSCCNC(=O)c2ccc(cc2)CNC(=O)[C@H](Cc2c[nH]c3ccccc23)NC1=O [D2-W-B3/-] ([Mpa][Orn]W[4Amb]-Cysteamide; disulfide 1-C),110.008
15,O=C1CCSSCCNC(=O)[C@@H]2CCCN2C(=O)[C@H](Cc2ccc(O)cc2)NC(=O)[C@H](CCCNC(=O)c2ccco2)N1 [D2-Y-B1/16] ([Mpa][Orn](2Furoyl)YP-Cysteamide; disulfide 1-C),105.138
16,COc1ccc(C(=O)NCCC[C@@H]2NC(=O)CCSSCCNC(=O)CCNC(=O)[C@@H](C)NC2=O)cn1 [D2-a-B2/10],113.133
17,CC(C)CC(=O)NCCCC[C@@H]1NC(=O)[C@H](Cc2ccccc2)NC(=O)CCSSCCNC(=O)[C@H]2CCCN(C2)C1=O [F-D1-B4/8],108.059

row,SMILES,percent residual thrombin activity [%]
1,O=C(COc1ccccc1)NCCCC[C@@H]1NC(=O)[C@H](Cc2ccccc2)NC(=O)CCSSCCNC(=O)[C@H]2CCCN(C2)C1=O [F-D1-B4/13],109.797
2,CC(C)CC(=O)NCCC[C@@H]1NC(=O)CCNC(=O)[C@H](Cc2cnc[nH]2)NC(=O)CCSSCCNC1=O [H-B2-D2/8],108.958
3,O=C1CCNC(=O)[C@H](Cc2c[nH]cn2)NC(=O)CCSSCCNC(=O)[C@H](CCCNC(=O)c2c[nH]c(=O)[nH]c2=O)N1 [H-B2-D2/11],112.021
4,COc1ccc(C(=O)NCCCC[C@@H]2NC(=O)c3cccc(c3)CNC(=O)[C@H](Cc3cnc[nH]3)NC(=O)CCSSCCNC2=O)cn1 [H-B5-D1/10],98.3606
5,NCCCC[C@@H]1NC(=O)c2cccc(c2)CNC(=O)[C@H](Cc2cnc[nH]2)NC(=O)CCSSCCNC1=O [H-B5-D1/-],101.253
6,CC[C@H](C)[C@@H]1NC(=O)CCSSCCNC(=O)[C@H](CCCCNC(=O)c2cc(C)on2)NC(=O)c2cccc(c2)CNC1=O [I-B5-D1/3],104.965
7,CC[C@H](C)[C@@H]1NC(=O)CCSSCCNC(=O)[C@H](CCCCNC(=O)c2c[nH]c(=O)[nH]c2=O)NC(=O)c2cccc(c2)CNC1=O [I-B5-D1/11],106.327
8,CC[C@H](C)[C@@H]1NC(=O)CCSSCCNC(=O)[C@H](CCCCN)NC(=O)c2cccc(c2)CNC1=O [I-B5-D1/-],103.325
9,CC[C@H](C)[C@@H]1NC(=O)CCSSCCNC(=O)[C@H]2CCCN(C2)C(=O)[C@H](CCCCNC(=O)c2cnccn2)NC1=O [I-D1-B4/2],114.834
10,CC[C@H](C)[C@@H]1NC(=O)CCSSCCNC(=O)[C@H]2CCCN(C2)C(=O)[C@H](CCCCNC(=O)c2c[nH]c(=O)[nH]c2=O)NC1=O [I-D1-B4/11],113.791
11,CC[C@H](C)[C@@H]1NC(=O)CCSSCCNC(=O)[C@H]2CCCN(C2)C(=O)[C@H](CCCCN)NC1=O [I-D1-B4/-],114.483
12,CC(C)CC(=O)NCCC[C@@H]1NC(=O)[C@H]2CCCN(C2)C(=O)[C@H](CC(C)C)NC(=O)CCSSCCNC1=O [L-B4-D2/8],106.945
13,COc1ccc(C(=O)NCCC[C@@H]2NC(=O)[C@H]3CCCN(C3)C(=O)[C@H](CC(C)C)NC(=O)CCSSCCNC2=O)cn1 [L-B4-D2/10],107.664
14,CC(C)C[C@@H]1NC(=O)CCSSCCNC(=O)[C@H](CCCNC(=O)COc2ccccc2)NC(=O)[C@H]2CCCN(C2)C1=O [L-B4-D2/13],110.982
15,CC(C)C[C@@H]1NC(=O)CCSSCCNC(=O)[C@H](CCCNC(=O)c2ccc(Cl)s2)NC(=O)[C@H]2CCCN(C2)C1=O [L-B4-D2/14],97.6394
16,CC(C)C[C@@H]1NC(=O)CCSSCCNC(=O)[C@H](CCCN)NC(=O)[C@H]2CCCN(C2)C1=O [L-B4-D2/-],109.552
17,CC(C)C[C@@H]1NC(=O)CCSSCCNC(=O)[C@H](CCCCNC(=O)c2cnccn2)NC(=O)C2(CC2)CNC1=O [L-B6-D1/2],107.636
